Experimental data published in ChEMBL document CHEMBL1156893, “Structure-activity relationships amongst 4-position quinoline methanol antimalarials that inhibit the growth of drug sensitive and resistant strains of Plasmodium falciparum” (Bioorg Med Chem Lett, 2010).

What follows are compounds tested on Plasmodium berghei (assay: Antimalarial activity against Plasmodium berghei infected in ICR mice (Mus musculus) assessed as delay in mortality at 160 mg/kg, perorally for 3 days).
Assay type: functional, organism-based
Set-up: dose 160 mg/kg

Going from COCCNCC(O)c1cc(C(F)(F)F)nc2c(C(F)(F)F)cccc12 (stereo not drawn) to COCCCNCC(O)c1cc(C(F)(F)F)nc2c(C(F)(F)F)cccc12 (stereo not drawn), the survival time falls from 15 days to 9 days.

First: CC1C(NCC(O)c2cc(C(F)(F)F)nc3c(C(F)(F)F)cccc23)CC2CC1C2(C)C (stereo not drawn)
Second: CNCC(O)c1cc(C(F)(F)F)nc2c(C(F)(F)F)cccc12 (stereo not drawn)
The survival time of the first is lower: 3 days for the first, 25 days for the second.

Compared with CC(C)CC(C)NCC(O)c1cc(C(F)(F)F)nc2c(C(F)(F)F)cccc12 (stereo not drawn), CCCCNCC(O)c1cc(C(F)(F)F)nc2c(C(F)(F)F)cccc12 (stereo not drawn) is higher in survival time: 2 days for the first, 8 days for the second.

CSCCCNCC(O)c1cc(C(F)(F)F)nc2c(C(F)(F)F)cccc12 (stereo not drawn) and OC(c1cc(C(F)(F)F)nc2c(C(F)(F)F)cccc12)C1CCCCN1 (racemic) are the same in survival time: 17 days for the first, 17 days for the second.
